molecular target: Bcl-2-like protein 1 (Homo sapiens, UniProt Q07817); experiment: Fluorescence Polarization Assay; details: not given
Description: Fluorescence polarization experiments were conducted on a Photon Technology International instrument using a 0.3 cm path length cuvette. Spectra were measured at 25 deg C using 10.0 nm slit widths. Excitation at 495 nm was used for the fluorescein-containing peptide Fl-Bak and the emission maximum at 535 nm was monitored. Polarization measurements were recorded upon titration of inhibitors at varying concentrations into a solution of Fl-Bak and Bcl-xL.

Bcl-2-like protein 1, sequence (Q07817 whole entry): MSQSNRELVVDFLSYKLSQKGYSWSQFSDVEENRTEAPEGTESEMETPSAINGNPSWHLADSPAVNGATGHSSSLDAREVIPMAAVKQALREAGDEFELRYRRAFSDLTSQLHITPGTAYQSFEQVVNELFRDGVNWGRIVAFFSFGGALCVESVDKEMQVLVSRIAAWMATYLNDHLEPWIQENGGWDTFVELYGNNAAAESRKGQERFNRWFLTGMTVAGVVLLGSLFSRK

Row | Structure (SMILES) | Ki [µM]
1 | CC(C)C[C@H](NC(=O)c1ccc(C(=O)N(CC(C)C)[C@H](C(=O)O)C(C)C)cc1OC(C)C)C(=O)O [terephthalamide scaffold, 47] | 450
2 | CC(C)C[C@H](NC(=O)c1ccc(C(=O)N[C@@H](CC(C)C)C(=O)O)c(Oc2ccc3ccccc3c2)c1)C(=O)O [terephthalamide scaffold, 50] | 82.1

same assay, conditions: pH 7.4; 25 °C

Row | Ki [µM] | Structure (SMILES)
3 | 2.31 | COc1cc(C(=O)N(C(C)C)C(C)C)ccc1C(=O)N[C@@H](CC(C)C)C(=O)O [terephthalamide scaffold, 28]
4 | 10.9 | COC(=O)[C@H](Cc1ccccc1)NC(=O)c1ccc(C(=O)N(C(C)C)C(C)C)cc1OC(C)C [terephthalamide scaffold, 25]
5 | 13.2 | COC(=O)[C@H](CC(C)C)NC(=O)c1ccc(C(=O)N(C(C)C)C(C)C)cc1Oc1ccc([N+](=O)[O-])cc1 [terephthalamide scaffold, 32]
6 | 3.14 | COC(=O)[C@H](CC(C)C)NC(=O)c1ccc(C(=O)N(C)C)cc1OC(C)C [terephthalamide scaffold, 34]
7 | 7.63 | CC(C)C[C@H](NC(=O)c1ccc(C(=O)N(C(C)C)C(C)C)cc1Oc1ccc2ccccc2c1)C(=O)O [terephthalamide scaffold, 31]
